Measured values reported in PMC8879095, “UHPLC-MS/MS Analysis of Antibiotics Transfer and Concentrations in Porcine Oral Fluid after Intramuscular Application” (Pharmaceuticals, 2022).
Read-outs that look alike come from different tables or passages of the source.

How the values were obtained:
[1] = Antibiotic concentrations in porcine oral fluid after intramuscular application (UHPLC-MS/MS); type: in vivo; conditions: pigs, i.m.; for concentration in oral fluid at withdrawal period: at the end of the withdrawal period for tissues of each drug (Table 3); for distribution to oral fluid: conclusion in words
Method: All animals were born in the sow farm (8000 DanBred sows) located in Northern Poland, after crossing ♀(♂Landrace × ♀Yorskshire) × ♂Duroc. Piglets were weaned after 4 weeks of lactation with an average weight of 6 kg and then moved to the weaner stable (23,000 weaners). After the next 7 weeks, animals were transported to the 9000-places fattening farm with an average body weight of 28 kg, where the trial was performed. All farms in the aforementioned three-phase model used weekly batches and an all-in all-out system. Specialist veterinary and production management care were provided in each location.
For the purpose of the study, 240 immunologically castrated boars were divided into 8 groups, 30 animals in each pen. For the control group, 30 pigs were used in separate pens. Their initial body weight was between 40 and 60 kg. Pigs were housed at 20–25 °C. Fatteners were fed ad libitum with antimicrobial-free water and feed provided by feeders throughout the study. Before the experiment, water and feed were checked for antimicrobials, and no antimicrobial treatments were administered to these pigs before. All animals in one pen were treated due to the same health issue using disposable needles and the same drug and dosage. Pens were separated from each other with concrete walls. The drugs and dosage administered to each experimental group with an indication of withdrawal period for tissues are listed in Table 3. The oral fluid samples were collected using three cotton ropes (70 cm length with 1 cm diameter) in each pen suspended separately for 25 min on the front wall of the pen with bottoms at the pigs’ shoulder height, away from water and feed.
The research material was one pooled sample of oral fluid from 10 pigs, in triplicate, per pen. Ropes were removed immediately after collection. The first oral fluid sample was collected 24 h after the first injection. The collection of each subsequent sample took place at the same time (11:30 A.M.) for 35 consecutive days. Additionally, oral fluid samples were collected from pigs not treated with any antibiotics. Oral fluid from each pen was pooled into one 50-mL Falcon plastic tube and centrifuged at 9447× rcf for 15 min. Centrifuged material was transferred to a 15 mL plastic tube and frozen at −20 °C until analysis.
Before the analysis, the oral fluid samples were centrifuged at 9447× rcf. Next, an aliquot (1 mL) of oral fluid was placed into a 2 mL polypropylene centrifuge tube, and the 30 µL of the internal standard at the concentration of 2 µg/mL was added. For the extraction of analysed antibiotics, 600 µL of 0.5% formic acid was added, vortexed for 30 s and centrifuged for 10 min at 9447× rcf. Then, the supernatant was filtered through a […] PVDF filter into an amber glass vial before chromatographic analysis.
The mass spectrometry detection was operated in the positive ESI mode with multiple reaction monitoring (MRM).

[2] = set-up: method as in earlier work; conditions: cited from earlier work
[3] = cited from earlier work
[4] = set-up: method as in PMID 14651045, PMID 14651045; conditions: cited from earlier work
[5] = male, (Landrace × Yorkshire) × Duroc crossbred (DanBred sows), pig, intramuscular, oral fluid, time 1 d (24 h after first injection), treatment period, read-out: Avarage Concentrations in oral fluid
[6] = male, (Landrace × Yorkshire) × Duroc crossbred (DanBred sows), pig, intramuscular, oral fluid, treatment period, read-out: Avarage Concentrations in oral fluid
[7] = male, (Landrace × Yorkshire) × Duroc crossbred (DanBred sows), pig, intramuscular, oral fluid, time 4 d, posttreatment, read-out: Avarage Concentrations in oral fluid
[8] = male, (Landrace × Yorkshire) × Duroc crossbred (DanBred sows), pig, intramuscular, oral fluid, posttreatment, read-out: Avarage Concentrations in oral fluid
[9] = oral fluid, time 30 d, posttreatment

concentration at 1 d [1, 5] [ng/mL]	concentration at 2 d [1, 6] [ng/mL]	concentration at 3 d [1, 6] [ng/mL]	concentration at 4 d [1, 7] [ng/mL]	concentration at 5 d [1, 8] [ng/mL]	concentration at 6 d [1, 8] [ng/mL]	concentration at 7 d [1, 8] [ng/mL]	concentration at 8 d [1, 8] [ng/mL]	concentration at 9 d [1, 8] [ng/mL]	concentration at 10 d [1, 8] [ng/mL]	concentration at 11 d [1, 8] [ng/mL]	concentration at 12 d [1, 8] [ng/mL]	concentration at 13 d [1, 8] [ng/mL]	concentration at 14 d [1, 8] [ng/mL]	concentration at 15 d [1, 8] [ng/mL]	concentration at 16 d [1, 8] [ng/mL]	concentration at 17 d [1, 8] [ng/mL]	concentration at 18 d [1, 8] [ng/mL]	concentration at 19 d [1, 8] [ng/mL]	concentration at 20 d [1, 8] [ng/mL]	SMILES	further results
10500	2960 ± 446	4250 ± 559	1550	1670 ± 199	1790 ± 203	1480 ± 186	437 ± 101	457 ± 96	420 ± 83	194 ± 55	257 ± 76	131 ± 41	125 ± 33	277 ± 61	337 ± 69	128 ± 28	302 ± 51	279 ± 44	376 ± 52	CCC[C@@H]1C[C@@H](C(=O)N[C@@H]([C@H]2O[C@H](SC)[C@H](O)[C@@H](O)[C@H]2O)[C@@H](C)O)N(C)C1 [LIN, lincomycin]	concentration at 1 d ([1]; male, (Landrace × Yorkshire) × Duroc crossbred (DanBred sows), pig, intramuscular, oral fluid, first day of medication (abstract), read-out: concentration in oral fluid on the first day of medication): 10500 ng/g; concentration at 21 d [1, 8]: 252 ± 39 ng/mL; concentration at 22 d [1, 8]: 142 ± 24 ng/mL; concentration at 23 d [1, 8]: 298 ± 33 ng/mL; concentration at 24 d [1, 8]: 326 ± 47 ng/mL; concentration at 25 d [1, 8]: 180 ± 44 ng/mL; concentration at 26 d [1, 8]: 160 ± 36 ng/mL; concentration at 27 d [1, 8]: 205 ± 43 ng/mL; concentration at 28 d ([1]; male, (Landrace × Yorkshire) × Duroc crossbred (DanBred sows), pig, intramuscular, oral fluid, time 28 d, posttreatment, read-out: Avarage Concentrations in oral fluid): 103 ± 26 ng/mL; concentration at 29 d ([1]; male, (Landrace × Yorkshire) × Duroc crossbred (DanBred sows), pig, intramuscular, oral fluid, time 29 d, posttreatment, read-out: Avarage Concentrations in oral fluid): 85.6 ± 16 ng/mL; concentration at 30 d ([1]; male, (Landrace × Yorkshire) × Duroc crossbred (DanBred sows), pig, intramuscular, oral fluid, time 30 d, posttreatment, read-out: Avarage Concentrations in oral fluid): 58.1 ng/mL; concentration in oral fluid at withdrawal period ([1]; oral fluid): 437 ng/mL; Avarage Concentrations in oral fluid ([1]; oral fluid, time 1 d (24 h after first injection), treatment period): 10,500 ± 1889 µg/L; Avarage Concentrations in oral fluid ([1]; oral fluid, time 4 d, posttreatment): 1550 ± 211 µg/L; Avarage Concentrations in oral fluid [1, 9]: 58.1 ± 12 µg/L; distribution to oral fluid [1]: high distribution; apparent volume of distribution [2]: > 1 L/kg; pKa [3]: about 7.6
396 ± 68	958 ± 166	832 ± 142	654 ± 111	538 ± 96	475 ± 89	175 ± 54	118 ± 41	158 ± 62	49.3 ± 13	54.4 ± 16	140 ± 36	32.3 ± 11	30.6 ± 8.4	19.2 ± 5.2	52.8 ± 33	31.9 ± 10	13.9 ± 3.6	16.1 ± 4.6	25.4 ± 7.7	CC[C@H]1OC(=O)C[C@@H](O)[C@H](C)[C@@H](O[C@@H]2O[C@H](C)[C@@H](O[C@H]3C[C@@](C)(O)[C@@H](O)[C@H](C)O3)[C@H](N(C)C)[C@H]2O)[C@@H](CC=O)C[C@@H](C)C(=O)/C=C/C(C)=C/[C@@H]1CO[C@@H]1O[C@H](C)[C@@H](O)[C@@H](OC)[C@H]1OC [TYL, tylosin]	concentration at 1 d ([1]; male, (Landrace × Yorkshire) × Duroc crossbred (DanBred sows), pig, intramuscular, 5 mg/kg, oral fluid, time 1 d (24 h after first injection), treatment period, read-out: Avarage Concentrations in oral fluid): 396 ng/mL; concentration at 21 d [1, 8]: 9.2 ± 2.1 ng/mL; concentration at 22 d [1, 8]: 5.5 ± 1.1 ng/mL; concentration at 23 d [1, 8]: 5.4 ± 0.8 ng/mL; concentration at 24 d [1, 8]: 6.6 ± 0.9 ng/mL; concentration at 25 d [1, 8]: 5 ± 1.3 ng/mL; concentration at 26 d [1, 8]: 3 ± 0.5 ng/mL; concentration at 27 d [1, 8]: 6.8 ± 1.7 ng/mL; concentration in oral fluid at withdrawal period ([1]; oral fluid): 6.6 ng/mL; day of peak concentration in oral fluid ([1]; oral fluid, day of drug administration): second day; time for which the analyte was present / quantified in oral fluid ([1]; oral fluid, sampling for 30 days): 27 days; Avarage Concentrations in oral fluid ([1]; oral fluid, time 28 d, posttreatment): <LOQ; Avarage Concentrations in oral fluid ([1]; oral fluid, time 29 d, posttreatment): <LOQ; Avarage Concentrations in oral fluid [1, 9]: <LOQ; distribution to oral fluid [1]: high distribution; binding degree to plasma proteins [4]: < 50%; pKa [3]: 7.1
